In brackets after ≈: the same amount, converted by molar mass. Marks after values point to notes of the source that are not given here.
These compounds were tested on mouse reticulum cell sarcoma (M 5076) (assay: Suppression of tumor formation in vivo (M 5076)). Conditions: 30 mg/day subcutaneously, 10 injections over 12 days; tumor volume one day after the final injection.
Parameters: species or system C57BL/6N mice
Excerpt: The tumor used in this assay was mouse reticulum cell sarcoma (M 5076), maintained by intraperitoneal transplantation into male C57BL/6N mice. The tumor cells in ascites were collected by centrifugation, and suspended in saline. The cell suspension (2 x 10⁶ cells/100 »l/mouse) was inoculated into right flanks of mice. Tumor-bearing mice were subcutaneously treated with the compound (I) (shown by Example Numbers) suspended in 5% arabic gum solution containing 1% of ethanol, for 12 days beginning one day after tumor inoculation (10 injections). The tumor growth was determined by measuring tumor size in two directions with calipers at intervals of a few days. The tumor volumes were calculated by the following formula. Tumor volume (mm³) = length x (width)² […]. [formula]

Q: With CO[C@@H]1[C@H](OC(=O)NC(=O)CCl)CC[C@]2(CO2)[C@H]1[C@@]1(C)O[C@@H]1CCC(C)C [Example 51, O-Chloroacetylcarbamoyldihydrofumagillol] as the compound, how does the “T/C (%)” value read?
A: Its value is 22%.

Q: How did the “T/C (%)” value turn out when “O-Chloroacetylcarbamoyl-6'b-hydroxyfumagillol [Example 76]” was run?
A: The value was 29%.

What follows are compounds tested on bFGF-induced angiogenesis (assay: rat cornea micropocket method (angiogenesis inhibitory activity)). Conditions: rats with angiogenesis inhibitory activity / rats tested; sample pellet 20 »g; judged after 7 days.
Type: in vivo, Sprague-Dawley rats
Experimental: The product compound (I) obtained in the examples given below were evaluated for angiogenesis inhibitory activity by the rat cornea micropocket method.
Essentially the method of Gimbrone et al. [J. National Cancer Institute, 52, 413-419 (1974)] was followed. Thus, adult male Sprague-Dawley rats (11 to 16 weeks of age) were anesthetized with nembutal and locally anesthetized by instillation of xylocaine eyedrops onto the eyeball. The cornea was incised to a length of about 2 mm at about 2mm inside from the corneal circumference by means of an injection needle, and a sustained release pellet containing basic fibroblast growth factor (bFGF; bovine brain-derived, purified product; R & D) and a sustained release pellet containing the test sample were inserted side by side into the incision so that the bFGF pellet was located on the central side in the cornea. In the control group, the bFGF pellet and a sample-free pellet were inserted into the cornea. After 7 days and after 10 days, the cornea was observed under a stereoscopic microscope.
The sustained release pellets were prepared in the following manner. An ethylene-vinyl acetate copolymer (Takeda Chemical Industries) was dissolved in dichloromethane to a concentration of 8%. A 3-»l portion of the solution was air-dried on a glass dish, an aqueous solution of bFGF (250 ng) was then placed thereon and air-dried and, finally 3 »l of the above ethylene-vinyl acetate copolymer solution was placed further thereon and air-dried to give a laminate consisting of two copolymer layers and a bFGF layer sandwiched therebetween. This sandwich sheet was made round into a bFGF pellet. The test sample pellets were prepared by dissolving each sample in ethanol in a concentration of 20 »g/2 »l, mixing the solution (2 »l) with 6 »l of an ethylene-vinyl acetate copolymer solution, air-drying the mixed solution on a glass dish and making the thus-obtained sheet round.

Q: How did the Inhibition rate turn out when CO[C@@H]1[C@H](OC(=O)Nc2ccccc2)CC[C@]2(CO2)[C@H]1[C@@]1(C)O[C@@H]1CC=C(C)C [Example 11, O-Phenylcarbamoylfumagillol] was run?
A: The Inhibition rate was 9/9*.

Q: How did the Inhibition rate turn out when CO[C@@H]1[C@H](OC(=O)COCC(=O)O)CC[C@]2(CO2)[C@H]1[C@@]1(C)O[C@@H]1CC=C(C)C [Example 5, O-Carboxymethoxyacetylfumagillol] was run?
A: Its Inhibition rate is 8/8*.

Same assay, conditions: rats with angiogenesis inhibitory activity / rats tested; sample pellet 20 »g; judged after 10 days

Q: For CO[C@@H]1[C@H](OC(=O)NC(=O)CCl)CC[C@]2(CO2)[C@H]1[C@@]1(C)O[C@@H]1CCC(C)C [Example 51, O-Chloroacetylcarbamoyldihydrofumagillol], which Inhibition rate is on record?
A: Its Inhibition rate is 7/14.

Q: CO[C@@H]1[C@H](OC(=O)N2CCOCC2)CC[C@]2(CO2)[C@H]1[C@@]1(C)O[C@@H]1CC=C(C)C [Example 24, O-Morpholinocarbonylfumagillol] was tested. Which Inhibition rate did it give?
A: Its Inhibition rate is 5/12.

Q: For CO[C@@H]1[C@H](OC(=O)NC(=O)CSc2nc3ccccc3o2)CC[C@]2(CO2)[C@H]1[C@@]1(C)O[C@@H]1CC=C(C)C [Example 60, O-[(2-Benzoxazolyl)thioacetylcarbamoyl]fumagillol], which Inhibition rate is on record?
A: The Inhibition rate was 4/6.

Q: How did the Inhibition rate turn out when C=C(C)C(=O)NC(=O)O[C@@H]1CC[C@]2(CO2)[C@@H]([C@@]2(C)O[C@@H]2CC=C(C)C)[C@@H]1OC [Example 33, O-Methacryloylcarbamoylfumagillol] was run?
A: The Inhibition rate was 4/6.

Q: With CO[C@@H]1[C@H](OC(=O)c2ccccc2C(=O)O)CC[C@]2(CO2)[C@H]1[C@@]1(C)O[C@@H]1CC=C(C)C [Example 6, O-(2-Carboxybenzoyl)fumagillol] as the compound, how does the Inhibition rate read?
A: The Inhibition rate was 6/7.

Q: Which Inhibition rate does the source give for CO[C@@H]1[C@H](OC(=O)NC(=O)COC(C)=O)CC[C@]2(CO2)[C@H]1[C@@]1(C)O[C@@H]1CC=C(C)C [Example 40, O-Acetoxyacetylcarbamoylfumagillol] here?
A: The Inhibition rate was 6/6.

Q: For CO[C@@H]1[C@H](OC(=O)NC(=O)CSc2ccncc2)CC[C@]2(CO2)[C@H]1[C@@]1(C)O[C@@H]1CC=C(C)C [Example 64, O-[(4-Pyridyl)thioacetylcarbamoyl]fumagillol], which Inhibition rate is on record?
A: Its Inhibition rate is 5/5.

Q: With CO[C@@H]1[C@H](OC(=O)NC(=O)CSC)CC[C@]2(CO2)[C@H]1[C@@]1(C)O[C@@H]1CC=C(C)C [Example 65, O-(Methylthioacetylcarbamoyl)fumagillol] as the compound, how does the Inhibition rate read?
A: The Inhibition rate was 8/8.

Q: How did the Inhibition rate turn out when CO[C@@H]1[C@H](OC(=O)NCC[N+](C)(C)C)CC[C@]2(CO2)[C@H]1[C@@]1(C)O[C@@H]1CC=C(C)C [Example 56, O-[2-(N,N,N-Trimethylammonio)ethylcarbamoyl]fumagillol iodide] was run?
A: The Inhibition rate was 4/7.

Q: For COC1C(OC(=O)NC(=O)CSc2cc[n+](C)cc2)CCC2(CO2)C1C1(C)OC1CC=C(C)C (centres unmarked) [Example 69, O-[(N-Methylpyridin-4-ylium)thioacetylcarbamoyl]fumagillol iodide], which Inhibition rate is on record?
A: Its Inhibition rate is 6/6.

Q: For CO[C@@H]1[C@H](OC(=O)NC(=O)CSC(C)=O)CC[C@]2(CO2)[C@H]1[C@@]1(C)O[C@@H]1CC=C(C)C [Example 41, O-Acetylthioacetylcarbamoylfumagillol], which Inhibition rate is on record?
A: The Inhibition rate was 2/4.

Q: Which Inhibition rate does the source give for CO[C@@H]1[C@H](OC(=O)NC(=O)CSc2cccc[n+]2[O-])CC[C@]2(CO2)[C@H]1[C@@]1(C)O[C@@H]1CC=C(C)C [Example 43, O-[(Pyridine-N-oxide-2-yl)thioacetylcarbamoyl]fumagillol] here?
A: The Inhibition rate was 7/7.

Q: For CCN1CCN(C(=O)O[C@@H]2CC[C@]3(CO3)[C@@H]([C@@]3(C)O[C@@H]3CC=C(C)C)[C@@H]2OC)CC1 [Example 39, O-[1-(4-Ethylpiperazinyl)carbonyl]fumagillol], which Inhibition rate is on record?
A: The Inhibition rate was 8/8.

Q: With CO[C@@H]1[C@H](OC(c2ccccc2)c2ccccc2)CC[C@]2(CO2)[C@H]1[C@@]1(C)O[C@@H]1CC=C(C)C [Example 45, O-Diphenylmethylfumagillol] as the compound, how does the Inhibition rate read?
A: Its Inhibition rate is 8/13.

Q: Which Inhibition rate does the source give for CO[C@@H]1[C@H](OC(=O)NC(=O)CSc2nc3ccccc3s2)CC[C@]2(CO2)[C@H]1[C@@]1(C)O[C@@H]1CC=C(C)C [Example 42, O-(2-Benzothiazolylthioacetylcarbamoyl)fumagillol] here?
A: Its Inhibition rate is 7/7.

Q: How did the Inhibition rate turn out when CO[C@@H]1[C@H](OC(N)=O)CC[C@]2(CO2)[C@H]1[C@@]1(C)O[C@@H]1CC=C(C)C [Example 23, O-Carbamoylfumagillol] was run?
A: The Inhibition rate was 6/8.

Q: Which Inhibition rate does the source give for CO[C@@H]1[C@H](OC(=O)NC(=O)CSc2nc3ccccc3[nH]2)CC[C@]2(CO2)[C@H]1[C@@]1(C)O[C@@H]1CC=C(C)C [Example 61, O-[(2-Benzoimidazolyl)thioacetylcarbamoyl]fumagillol] here?
A: The Inhibition rate was 7/7.

Each compound was assayed on Human umbilical vein endothelial cells (HUVE) (assay: Inhibition of human endothelial cell growth (MTT)). Conditions: Homo sapiens, Endothelial cell, 120 h, rbFGF 2 ng/ml, 5 day culture, read-out: (IC₅₀).
Type: cell-based
Experimental: Human umbilical vein endothelial cells (HUVE) were isolated by perfusion of an umbilical vein with a trypsin-containing medium. HUVE were cultured in GIT medium (Diago Eiyou Kagaku, Co., Japan) supplemented with 2.5% fetal bovine serum and 2.0 ng/ml of recombinant human basic fibroblast growth factor (rbFGF, Biotechnology Research Laboratories, Takeda, Osaka, Japan) at 37°C under 5% CO₂ and 7% O₂. HUVE were plated on 96-well microtiter plates (Nunc, 1-67008) at the cell density of 2 x 10³/100 »l of medium. The following day, 100 »l of medium containing rbFGF (2 ng/ml at the final concentration) and each compound (I) (shown by Example Numbers) at various concentrations were added to each well. […] After 5 day culture, medium was removed, 100 »l of 1 mg/ml of MTT (3-(4,5-dimethyl-2-thiazolyl)- 2,5-diphenyl-2H-tetrazolium bromide) solution was added to wells, and microtiters were kept at 37°C for 4 hours. Then, 100 »l of 10% sodium dodecyl sulfate (SDS) solution was added to wells, microtiters were kept at 37° for 5-6 hours. To determine the effects on cell number, the optical density ([…]) of each well was measured using an optical densitometer. […]

Q: CO[C@@H]1[C@H](OC(=O)NC(=O)CCl)CC[C@]2(CO2)[C@H]1[C@@]1(C)O[C@@H]1CCC(C)C [Example 51, O-Chloroacetylcarbamoyldihydrofumagillol] was tested. Which IC50 did it give?
A: Its IC50 is 0.14 ng/mL (≈ 0.347 nM).

Same assay, conditions: rbFGF 2 ng/ml, 5 day culture

Q: How did the “(IC₅₀)” value turn out when “O-Chloroacetylcarbamoyl-6'b-hydroxyfumagillol [Example 76]” was run?
A: The value was 0.12 ng/mL.
